{"source": "patent US20080311126A1", "about": "“Antisense Oligonucleotides Directed to Ribonucleotide Reducatase R2 and Uses Thereof in Combination Therapies for the Treatment of Cancer” (Genesense Technologies, Inc, priority 2004, published 2008)", "assay_type_in_all_cases": "in vivo", "key": {"Human Renal Carcinoma": {"test_system": "Human Renal Carcinoma", "experiment": "Tumour growth assay, human renal carcinoma in mice"}, "[1]": {"test_system": "MDA-MB-231 human breast cancer cells", "experiment": "MDA-MB-231 breast tumour xenograft in CD-1 nude mice", "experimental": "MDA-MB-231 human breast cancer cells (1×10^7 cells in 100 μl of PBS) were subcutaneously injected into the right flank of 6-7 weeks old female CD-1 nude mice. After the size of tumour reached an approximate volume of 100 mm^3, 5 days post tumour cell injection, SEQ ID NO:1, or the scrambled control oligonucleotide (SEQ ID NO:3) were administered by bolus infusion into the tail vein every other day at 10 mg/kg. Control animals received saline alone for the same period. Antitumour effect of SEQ ID NO:1 was further compared to that of taxol or doxorubicin alone or in combination. Taxol was administered intravenously once a week at a dose of 10 mg/kg for three (FIG. 17A) or four weeks (FIG. 17C). Doxorubicin was administered intravenously once a week at a dose of 5 mg/kg for first three weeks (FIG. 17A) or for two weeks (FIG. 17C). All treatments were stopped at day 33 (FIG. 17A) or at day 26 (FIG. 17C), respectively. A day after the last treatment, tumours were excised from the animals and their weights were measured. […] In FIG. 17C, antitumour activities were estimated by the inhibition of tumour volume, which was measured with calipers. Each point represents mean tumour volume calculated from 10 animals per experimental group."}, "[2]": {"test_system": "MDA-MB435-To.1 human Taxol-resistant breast adenocarcinoma cells", "experiment": "MDA-MB435-To.1 Taxol-resistant breast adenocarcinoma, fat pad injection in SCID mice", "design": "Tumour weight as % of saline control: concentration or dose not given beside the values", "conditions": "for Tumour weight as % of saline control: MDA-MB435-To.1 (breast), Taxol resistance", "experimental": "MDA-MB435-To.1 human Taxol-resistant breast adenocarcinoma cells (4×10^6 cells in […] of PBS) were injected into the fat pad (inside of right leg) of 6-7 weeks old female SCID mice. After the size of tumour reached an approximate volume of 100 mm^3, 20 days post tumour cell injection, SEQ ID NO:1 was administered by bolus infusion into the tail vein every other day at 10 mg/kg 15 times. Control animals received saline alone for the same period. Antitumour effect of SEQ ID NO:1 was further compared to that of Cisplatin or Taxol alone. Cisplatin was administered intravenously once a week for four weeks at a dose of 4 mg/kg. Taxol was administered intravenously once a week for four weeks at a dose of 20 mg/kg.\nAntitumour activities were estimated by the inhibition of tumour volume, which was measured with caliper. Bach point represents mean tumour volume calculated from 9-10 animals per experimental group. […] As expected, treatment with Taxol during the same period was ineffective against Taxol-resistant tumour.\nMDA-MB435-To.1 human Taxol-resistant breast adenocarcinoma cells (4×10^6 cells in 100 μl of PBS) were injected into the fat pad (inside of right leg) of 6-7 weeks old female CB-17 SCID mice. After the size of tumour reached an approximate volume of 100 mm^3, 17 days post tumour cell injection, SEQ ID NO:1 was administered by bolus infusion into the tail vein every other day at 10 mg/kg. Control animals received saline alone for the same period. Antitumour effect of SEQ ID NO:1 was compared to that of Cisplatin alone and in combination. Cisplatin was administered intravenously once a week for four weeks at a dose of 4 mg/kg. Antitumour activities were estimated by the inhibition of tumour volume, which was measured with caliper. Each point represents mean tumour volume calculated from 10 animals per experimental group. At the end of the study the animals were sacrificed and tumours weighed."}, "[3]": {"test_system": "SK-OV-3 human ovary adenocarcinoma cells", "experiment": "SK-OV-3 ovary tumour xenograft in CD-1 nude mice", "experimental": "SK-OV-3 human ovary adenocarcinoma cells (1×10^7 cells in 100 μl of PBS) were subcutaneously injected into the right flank of 6-7 weeks old female CD-1 nude mice. After the size of tumour reached an approximate volume of 100 mm^3, 6 days post tumour cell injection, SEQ ID NO:1 was administered by bolus infusion into the tail vein every other day at 10 mg/kg 17 times. Control animals received saline alone for the same period. Antitumour effect of SEQ ID NO: 1 was further compared to that of taxol or cisplatin alone or in combination. Taxol was administered intravenously once a week for first three weeks and intraperitoneally once a week for next two weeks at a dose of 10 mg/kg. Cisplatin was administered intravenously once a week for first three weeks and intraperitoneally once a week for next two weeks at a dose of 4 mg/kg. All treatments were stopped at day 40. Antitumour activities were estimated by the inhibition of tumour volume, which was measured with caliper. Each point represents mean tumour volume calculated from 9 animals per experimental group."}}, "note": "Entries after “also recorded” stand apart in the source; their conditions may differ.", "data": [{"sequence": "GGCTAAATCGCTCCACCAAG (chemistry not given here) [SEQ ID NO: 1, antisense oligonucleotide that hybridizes to the coding region of human ribonucleotide reductase R2 mRNA]", "values": [{"measurement": "Inhibition of tumour size", "setting": "Human Renal Carcinoma; Human Renal Carcinoma (first entry)", "result": "Approximately 90% inhibition of"}, {"measurement": "Inhibition of tumour size", "setting": "Human Renal Carcinoma; Human Renal Carcinoma^2 (second entry)", "result": "Approximately 97% inhibition of"}, {"measurement": "Tumour weight as % of saline control", "setting": "[1]; MDA-MB-231 (breast), Mouse CD-1", "result": 12.6, "unit": "%"}, {"measurement": "antitumour effect (tumour weight, tumour volume)", "setting": "[1]; oligonucleotide 10 mg/kg every other day i.v., taxol 10 mg/kg, doxorubicin 5 mg/kg i.v. once a week", "result": "delay of tumour growth compared to saline control in all three experiments; also recorded: superior to the inhibitory effects observed with taxol or doxorubicin alone"}, {"measurement": "antitumour effect (tumour volume)", "setting": "[2]; Example 13.5, SEQ ID NO:1 10 mg/kg 15 times, Cisplatin 4 mg/kg, Taxol 20 mg/kg i.v. weekly for four weeks", "result": "significant reduction of tumour weight; also recorded: superior to the inhibitory effects observed with Cisplatin"}, {"measurement": "antitumour effect (tumour volume, tumour weight)", "setting": "[2]; Example 13.6, CB-17 SCID mice, SEQ ID NO:1 10 mg/kg every other day, Cisplatin 4 mg/kg i.v. weekly", "result": "significant reduction of tumour weight; also recorded: superior to the inhibitory effects observed with Cisplatin"}, {"measurement": "Tumour weight as % of saline control", "setting": "[2]; CB-17/SCID", "result": 37, "unit": "%"}, {"measurement": "Tumour weight as % of saline control", "setting": "[2]; SCID", "result": 42, "unit": "%"}, {"measurement": "antitumour effect (tumour volume)", "setting": "[3]; SEQ ID NO:1 10 mg/kg 17 times, taxol 10 mg/kg, cisplatin 4 mg/kg once a week", "result": "significant delay of tumour growth"}, {"measurement": "tumour volume data as percentage of saline control", "setting": "[3]; SK-OV-3 (ovary), Mouse CD-1", "result": 42, "unit": "%"}]}]}
